Article PMC6321145 (Molecules, 2018)

Assays:
[1] = biological target: T1, Aβ1–42 fibrils (Homo sapiens, UniProt P05067); test: TEM assay of Aβ1–42 fibrils; type: biochemical; settings: compound 20 μM
T1 construct: Aβ1–42 (Sigma, St. Louis, MO, USA; counterion, NaOH) stock solution was prepared by dissolving Aβ1–42 peptide in ammonium hydroxide; purchased Sigma
Experimental: To further complement the ThT binding assay, A transmission electron microscopy (TEM) assay was employed to monitor and clarify the effect of compound 6b1 on Aβ1−42 aggregation.
The ability of compound 6b1 to disaggregate self-induced Aβ1–42 aggregation fibrils was also investigated. Aβ1–42 fibrils were prepared by incubating fresh Aβ1–42 for 24 h at 37 °C, and the test compound was added to the sample and incubated for another 24 h at 37 °C. Then the sample was analyzed by ThT binding assay and TEM assay.
Aβ1–42 peptide (Sigma) was dissolved in 20 mM phosphate buffer (pH 7.4) at 4 °C to 100 μM before use.
Aβ1–42 was incubated at 37 °C for 24 h. Then, 40 μM tested compound was added and incubated at 37 °C for another 24 h. The final concentrations of Aβ1–42 and the compounds were 50 μM and 20 μM, respectively. After incubation, aliquots (5 μL) of the samples were placed on a carbon-coated copper/rhodium grid for 2 min at room temperature. Each grid was stained with uranyl acetate (1%, 5 μL) for 2 min. Excess staining solution was removed and the specimen was transferred for imaging with transmission electron microscopy (JEOL JEM-1400, Tokyo, Japan).

[2] = test system: SH-SY5Y human neuroblastoma cells; test: Protective effect against Aβ1–42-induced toxicity in SH-SY5Y cells (MTT); type: cell-based
Experimental: The cytoprotective effect of compound 6b1 against Aβ1–42 damage in SH-SY5Y human neuroblastoma cell lines was determined by MTT assay. […] To investigate the protective effect of compound 6b1 on Aβ1–42 induced cell toxicity, SH-SY5Y cells exposed to Aβ1–42 (20 μM) were incubated with different concentrations of compound 6b1 (5, 10, and 20 μM) for 24 h, and the cell viability was tested.
SH-SY5Y cells were seeded in 96-well plates (1 × 10^4 cells per well) and exposed to Aβ1–42 (20 μM) in the presence of compound 6b1 at the increasing doses (0, 5, 10 and 20 μM). After 24 h and 48 h, cell viability was measured by the MTT assay.

[3] = biological target: T2, Aβ1–42 (Homo sapiens, UniProt P05067); test: Inhibition of self-induced Aβ1–42 aggregation (ThT fluorescence assay); type: biochemical
T2 construct: Aβ1–42 (Sigma, St. Louis, MO, USA; counterion, NaOH) stock solution was prepared by dissolving Aβ1–42 peptide in ammonium hydroxide; purchased Sigma
T2 sequence (P05067 672-713): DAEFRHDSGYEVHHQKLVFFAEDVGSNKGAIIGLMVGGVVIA
Experimental: The formation and aggregation of Aβ1–42 in the brain leads to neurotoxicity in AD. In order to evaluate the activity of our new synthetic compounds to inhibit Aβ1–42 self-induced aggregation, the thioflavin (ThT) fluorescence assay was performed.
All ThT experiments were performed according to our previously published methods. Aβ1–42 (Sigma, St. Louis, MO, USA; counterion, NaOH) stock solution was prepared by dissolving Aβ1–42 peptide in ammonium hydroxide (1% v/v), and diluting with 20 mM phosphate buffer (pH 7.4) to 100 μM. The tested compounds were firstly dissolved in DMSO at a concentration of 10 mM, and then diluted with 20 mM phosphate buffer (pH 7.4) to 40 μM.
For the inhibition of self-induced Aβ1–42 aggregation. Aβ1–42 peptide (2 μL, 50 μM, final concentration) with the tested compound (2 μL, 20 μM, final concentration) or 20 mM phosphate buffer (2 μL) was incubated in 20 mM phosphate buffer (pH 7.4) at 37 °C for 72 h. After incubation, the samples were diluted to a final volume of 36 μL with 50 mM glycine-NaOH buffer (pH 8.5) containing 5 μM Thioflavin T. Fluorescence signal was measured (excitation wavelength 450 nm, emission wavelength 485 nm, and slit widths set to 5 nm) on a monochromator-based multimode microplate reader ([…] M1000, TECAN, Hombrechtikon, Switzerland), adapted for 384-well microtiter plates. […] Each compound was examined in triplicate.

[4] = Cytotoxicity on SH-SY5Y cells (MTT); type: cell-based, human; settings: human, SH-SY5Y neuroblastoma cells; MTT, 24 h; mean ± SEM of three measurements
Experimental: (§1) The cytotoxicity of our synthesized compounds was examined in human neuroblastoma SH-SY5Y cells. The cell viability was determined by using methyl thiazolyl tetrazolium (MTT) colorimetry, the cells were treated with different concentrations of compounds (0–100 μM). The result is shown in the Supplementary Materials (Table S1).
(§2) The cytotoxicities of the compounds were evaluated using the MTT assay. SH-SY5Y cells were subcultured in 96-well plates at a seeding density of 1 × 10^4 cells per well. After 24 h, the medium was removed and treated with different concentrations of tested compounds for 24 h at 37 °C. The survival of cells was determined with MTT assay. Then 80 μL of medium and 20 μL of MTT (0.5 mg/mL, final concentration) were added to each well and incubated for another 4 h. After the removal of MTT, the formazan crystals were dissolved in DMSO. The amount of formazan was measured using a microculture plate reader at the wavelength of 570 nm. Each concentration was performed in triplicate.

[5] = test system: SH-SY5Y cells; test: Cytotoxicity on SH-SY5Y cells (MTT); type: cell-based, human; settings: 20 μM
Experimental: as §1, §2

[6] = test system: SH-SY5Y cells; test: Cellular ROS detection (DCFH-DA) in SH-SY5Y cells treated with t-BuOOH; type: cell-based, human; settings: compound 2.5 μM; 0.1 mM t-BuOOH; compared with Trolox
Experimental: To further investigate their antioxidant activity in SH-SY5Y cells, cellular ROS detection assay based on dichlorofluorescein diacetate (DCFH-DA) was performed. with Trolox and N-acetyl-L-cysteine (NAC) as reference compounds.
SH-SY5Y cells were maintained in Dulbecco’s modified Eagle’s medium (DEME) and supplemented with 1 mM glutamine, 10% fetal calf serum, 100 U/mL penicillin, and 100 μg/mL streptomycin. The cultures were maintained at 37 °C in a humidified incubator containing 5% CO2 and were passaged twice weekly.
The antioxidant activity of the compounds in SH-SY5Y cells were tested with the fluorescent probe (2′,7′-dichlorofluorescein diacetate, DCFH-DA) as reported with some variation. SH-SY5Y cells were sub-cultured in 96-well plates at a seeding density of 1 × 10^4 cells per well for 24 h, then the medium was removed, the tested compounds (2.5 μM) was added and incubated for another 24 h at 37 °C. After that, the cells were washed with PBS and incubated with 5 μM DCFH-DA in PBS at 37 °C in 5% CO2 for 30 min. Then DCFH-DA was removed, the cells were washed three times and incubated with 0.1 mM t-BuOOH in PBS for 30 min. After the incubation, the cell fluorescence from each well was measured at 485 nm excitation and 535 nm emission with a monochromator based multimode microplate reader ([…] M1000).

T1 sequence (P05067 672-713): as above

**Q.** Which “TEM: Aβ1–42 fibril formation in presence of compound” value ([1]; 37 °C, 24 h) does the source give for `CCN(CC)c1ccc(/C=C/c2cc(NCCCN(C)C)c3ccccc3n2)cc1` [Compound 6b1, (E)-N^1-(2-(4-(Diethylamino)styryl)quinolin-4-yl)-N^3,N^3-dimethylpropane-1,3-diamine] here?
**A.** only fewer thin fibrils and small bulk aggregates

**Q.** And the “TEM: disaggregation of Aβ1–42 fibrils” value ([1]; preformed fibrils, 24 h at 37 °C)?
**A.** could disaggregate more Aβ1–42 fibrils than resveratrol

**Q.** And the “Cell viability against Aβ1–42-induced cytotoxicity” value ([2]; Aβ1–42 20 μM, compound 5, 10, 20 μM, 24 h)?
**A.** increased the cell viability

**Q.** What about the viability at 20 µM ([2]; Homo sapiens, SH-SY5Y, 48 h, read-out: Cell viability after co-incubation with Aβ1–42) of the same compound?
**A.** 89.8%

**Q.** What about the IC50 ([3]; ThT fluorescence method, mean ± SD of three experiments, read-out: IC50 against self-induced Aβ1–42 aggregation) of the same compound?
**A.** 4.5 ± 0.7 µM

**Q.** And the inhibition at 20 µM ([3]; inhibitor 20 μM, Aβ1–42 50 μM, ThT, 37 °C, 72 h, mean ± SD)?
**A.** 95.3 ± 1.2%

**Q.** What about the IC50 at 24 h [4] of the same compound?
**A.** 254 µM

**Q.** And the “Effect on SH-SY5Y cell viability, compound alone” value [5]?
**A.** does not affect cell viability

**Q.** And the “Antioxidant activity in SH-SY5Y cells (ROS generation, DCFH-DA fluorescence)” value [6]?
**A.** more antioxidant activity than Trolox
